The values that follow come from patent publication US5488068A, “Aminobiphenyl-4-ol anti-atherosclerotic compounds and method” (Bristol-Myers Squibb Company, priority 1994, dated 1996).

Assay [1] deals with human LDL. In words: Primary in vitro screen: inhibition of initial rate of Cu++-dependent LDL lipid oxidation, compound directly added to LDL. The note with it: CuSO4 10 μM, 37°, 90 min. The assay is classed as biochemical. An excerpt:
(§1) The initial and later stages of LDL oxidation can be distinguished kinetically in vitro by measuring the formation of lipid conjugated diene oxidation products (ref. 10). By analogy to the behavior of antioxidants in simple single-phase systems (ref. 11), in vitro test systems were established to quantitate the protective effects of pure chemical compounds on Cu^++ -dependent LDL oxidation initial rate and lag phase. Both in vitro and ex vivo methods were employed to incorporate compounds into LDL. The magnitude of the decrease in the initial rate of conjugated diene formation was used as an estimate of the intrinsic LDL antioxidant potency of the test compound. The magnitude of the increase in lag time for the propagation phase of the oxidation chain reaction was used as an estimate of the effective concentration within LDL of the test compound. By this approach, quantitative estimation of the LDL antioxidant activity of compounds was used to identify chain-terminating antioxidants appropriate for testing in an in vivo atherosclerosis animal model.
This procedure determined the ability of test compounds added directly to LDL to inhibit the initial rate of LDL lipid oxidation monitored by conjugated diene content. The initial rate of conjugated diene formation was approximately linear with respect to time for approximately 2 hours under the conditions employed, prior to the end of the lag phase characterized by rapid propagation of the radical chain reaction and a corresponding large increase in conjugated diene content of the LDL sample. In the assay, aliquots of compounds dissolved in DMSO (and DMSO vehicle controls) were directly added to isolated human LDL (600 μg protein/mL) in Buffer 1 (10 mM HEPES, 150 mM NaCl, pH 7.2), and incubated at 37° for 60 min. Duplicate samples were then subjected to controlled oxidation by addition of CuSO4 (10 μM) and incubation at 37° for 0 or 90 min. The reaction was quenched by diluting with 5 volumes of buffer 1 plus EDTA (20 μM final) at 0° -4°. The conjugated diene levels in the LDL samples, a quantitative indicator of lipid peroxidation rate and extent, was determined spectrophotometrically by absorbance at 234 nm for each sample at 0 min and at 90 min time points of the CuSO4 incubation. […] Results are given in Table 1; a decrease vs. control reflects an active antioxidant.

Assay [2] has as its system LDL. Description: Ex vivo LDL oxidation susceptibility assay in hamsters after 2 weeks oral administration. Particulars: hamster; for ex vivo LDL oxidation initial rate / ex vivo LDL oxidation lag time: oral in diet, mean of 4 to 6 hamsters.
Excerpt: as §1
(§2) A plasma incorporation technique was used in this procedure to test for the partitioning of a compound into LDL and its retention during LDL isolation by ultracentrifugation and dialysis. The antioxidant activity remaining in LDL was then assayed by measuring the initial rate of Cu^++ -dependent conjugated diene formation, and the lag time before extensive formation of conjugated diene oxidation products. Incorporation of test compounds into LDL in vitro was achieved by addition of an aliquot of compound (final concentration 25 μM) in DMSO to aliquots of pooled human plasma previously dialyzed overnight in buffer 1 (10 mM HEPES, 150 mM NaCl, pH 7.2) and adjusted to d=1.019 with solid KBr, and incubating for 60 min at 37°. LDL was then isolated from plasma as the ([…] to d=1.063 g/ml) fraction by standard sequential flotation techniques using KBr solution discontinuous density gradients in an ultracentrifuge by a method adapted from the original procedure of Havel (J. Clin. Invest. 34:1345). The isolated LDL was dialyzed for 1 hour into buffer 1, and aliquots were added to cuvettes at 100 μg protein/ml in buffer 1. Oxidation reactions were initiated with CuSO4 (2.5 μM) at 20°. The LDL initial oxidation rate and lag time were measured by continuous monitoring of absorbance at 234 nm in a Beckman DU-7500 spectrophotometer. The initial oxidation rate was calculated as the slope of the linear regression curve of A234 vs. time over the first ~60 min. Percent of control was calculated for test compound vs. DMSO vehicle controls. Lag time was calculated as the time corresponding to the maximum value of the first derivative of the A234 vs. time curve. The value of the lag time from the A234 vs. time curve for test compounds compared to vehicle control was expressed as percent of control. Results are given in Table 2; a decrease vs. control in the initial rate, and an increase vs. control in the lag time, reflect an active antioxidant.
Compounds were administered orally to hamsters for 2 weeks using the same diet described for the atherosclerosis studies (part D.) At 2 weeks, hamsters were fasted overnight, blood was collected, and LDL was isolated as described above (part B). The same assay methods described above (part B.) were then used to obtain ex vivo LDL oxidation initial rate and lag time values. Results are given in Table 3; a decrease vs. control in the initial rate, and an increase in the lag time, reflect an active antioxidant.

The test system of assay [3] is human LDL. Description: Secondary in vitro screen: LDL oxidation initial rate and lag time after in vitro plasma incorporation of compound into LDL. Format: biochemical. Particulars: 25 μM in plasma incorporation; CuSO4 2.5 μM, 20°.
Excerpt: as §1, §2

Assay [4] has as its system aortic foam cell atherosclerosis lesion. In words: In vivo atherosclerosis model in hamsters: aortic foam cell lesion size after 10 weeks. The note with it: hamster; for aortic lesion size: oral in diet, mean ± SEM, n=12. The procedure:
Atherosclerosis in hamsters is confined initially to a lesion prone area along the inner curvature of the aortic arch. Early atherogenesis in this region is characterized by the infiltration of monocytes which become lipid-filled macrophage foam cells, which can develop into complex fibrous atheromas. Antioxidants selected from primary and secondary in vitro screens and ex vivo assays were tested for their ability to inhibit macrophage foam cell lesion formation in hamsters in 10 weeks studies. Lesion size was assayed by video microscopy/image analysis of histological specimens of the aortic arch stained with the lipophilic dye, oil red O. Hamsters were maintained on a diet deficient in vitamins E, C, and K/menadione, selenium, and carotenoids, and supplemented with vitamin E-stripped corn oil (10%) and cholesterol (0.4%). This diet amplified oxidant stress while only moderately elevating plasma cholesterol and LDL levels. Test compounds were administered in this diet fed ad libitum for 10 weeks. The dosages are given as mg/kg/day based on food consumption measurements and weight of the animals at the end of the 10 week dosing period. […] Results are given in Table 4; a decrease in lesion size relative to control indicates an effective anti-atherosclerotic agent.

Assay [5] has as its system LDL. Particulars: rabbit, in vivo; cited from earlier work.
The test system of the next assay is aortic lesions. Particulars: cited from earlier work.
The subject of assay [6] is LDL. The note with it: animal models of atherosclerosis, high doses; cited from earlier work.
For the next assay, the system named is arterial lesion. The note with it: animal models of atherosclerosis, high doses; cited from earlier work.

With `COc1ccc(O)c(C(C)(C)C)c1` [BHA, butylated hydroxyanisole], the “LDL oxidation initial rate” value with human LDL [1] (1.0 μM) is given as 16 % of control. Further, in the assay with LDL [2] (60 mg/kg/day), the “ex vivo LDL oxidation initial rate” value is 77 % of control and the “ex vivo LDL oxidation lag time” value is reported as 116 % of control. Further, in the assay on human LDL [3], the “LDL oxidation initial rate” value was 11.0 % of control and the “LDL oxidation lag time” value is 239 % of control.
Consider `CN(C)c1cc(-c2ccccc2)ccc1O` [Example 1, 3-(Dimethylamino)[1,1'-biphenyl]-4-ol], for which the “LDL oxidation initial rate” value is 66.2 % of control with human LDL [1] (0.30 μM); 42.2 % of control with human LDL [1] (1.0 μM); 34.0 % of control in the assay with human LDL [1] (3.0 μM); 1.7 % of control in the assay with human LDL [1] (10 μM); 17.9 % of control in the assay with human LDL [3]. In addition, the “anti-atherosclerotic effectiveness relative to probucol” value in assay [4] (oral) is listed as “markedly more effective than the reference agent probucol”. Moreover, the aortic lesion size in assay [4] (3 mg/kg/day) is on record as 71.7 ± 13.7 % of control; in assay [4] (60 mg/kg/day), 46.2 ± 6.2 % of control. For the same compound, in the assay with LDL [2] (oral), the “ex vivo LDL antioxidant activity relative to probucol and BHA” value is “markedly more active in this model than the reference agents probucol and BHA”. For the same compound, the “ex vivo LDL oxidation initial rate” value in the assay with LDL [2] (60 mg/kg/day) is recorded as 17 % of control. Further, the “ex vivo LDL oxidation lag time” value in the assay on LDL [2] (60 mg/kg/day) is listed as 482 % of control. For the same compound, in the assay with human LDL [3], the “LDL oxidation lag time” value is given as 237 % of control.
As for `c1ccc(Nc2ccc(Nc3ccccc3)cc2)cc1` [N,N'-diphenylphenylenediamine (DPPD), N,N'-diphenylphenylenediamine], the “protection of LDL from oxidation” value in the assay on LDL [5] is on record as “protect LDL from oxidation”. In addition, the “aortic lesions in rabbits” value with aortic lesions is given as “decrease aortic lesions in rabbits”.
Take `Cc1cc(C(C)(C)C)c(O)c(C(C)(C)C)c1` [butylated hydroxytoluene (BHT), butylated hydroxytoluene]: the “protection of LDL from oxidation” value with LDL [5] is given as “protect LDL from oxidation”. For the same compound, in the assay with aortic lesions, the “aortic lesions in rabbits” value is “decrease aortic lesions in rabbits”.
`CC(C)(Sc1cc(C(C)(C)C)c(O)c(C(C)(C)C)c1)Sc1cc(C(C)(C)C)c(O)c(C(C)(C)C)c1` [probucol]: the “LDL oxidation initial rate” value in the assay with human LDL [1] (1.0 μM) is recorded as 79 % of control. Also, the “oxidation of LDL in vivo” value in the assay with LDL [6] was “decrease oxidation of LDL in vivo”. The aortic lesion size in assay [4] (120 mg/kg/day) is 59.4 ± 6.4 % of control. Besides, in the assay on LDL [2] (120 mg/kg/day), the “ex vivo LDL oxidation initial rate” value was 70 % of control and the “ex vivo LDL oxidation lag time” value is recorded as 141 % of control. Further, in the assay on human LDL [3], the “LDL oxidation initial rate” value is reported as 17.6 % of control and the “LDL oxidation lag time” value is listed as 293 % of control. Further, the arterial lesion size result with arterial lesion is “decreased arterial lesion size”.
